Assays:
[1] = test system: RMS cell lines including RD and RH30 cells; design: method as in PMID 10917549, PMID 11742497; details: after 4–5 days of treatment, range of RMS cell lines including RD and RH30; cited from earlier work
RH30 and RD cells = test: IC50 of doxorubicin established in the cell lines tested; assay type: cell-based; details: Homo sapiens

Compound | IC50 [1] [nM] | IC50 (RH30 and RD cells) [nM]
N.N.[Cl][Pt][Cl] [Cisplatin, cisplatin] | > 500 | 
COc1cccc2c1C(=O)c1c(O)c3c(c(O)c1C2=O)C[C@@](O)(C(=O)CO)C[C@@H]3O[C@H]1C[C@H](N)[C@H](O)[C@H](C)O1 [Doxorubicin, doxorubicin] |  | 500
